From article PMC7113773 (Antiviral Research, 2014)

Experiments:
PR8 virus entry = test: Confocal microscopy of viral NP; details: 100 μM, MOI 2.5, 2 h at 37 °C, MDCK cells
PR8 virus [1] = type: cell-based, influenza A virus
[2] = test system: A/Puerto Rico/8/34 (H1N1; PR8); test: organism not typed; type: cell-based, influenza A virus; details: for EC50: MDCK, 72 h, read-out: EC50 for influenza virus A/Puerto Rico/8/34
in vitro = details: dog
A/Hong Kong/8/68 (H3N2) = test: organism not typed; type: cell-based, influenza A virus; details: for EC50: MDCK, 72 h, read-out: EC50 for influenza virus A/Hong Kong/8/68
[3] = test system: influenza A/H1N1, A/H3N2 and B viruses; test: CPE reduction assay / screen, stated for the three influenza viruses together; type: cell-based; details: for anti-influenza activity: even at 100 μM
PR8 virus [4] = type: cell-based, influenza A virus; remark: listed apart in the source
[5] = test system: PR8 virus NP and HA protein; type: cell-based, influenza A virus; details: 11, 33 and 100 μM, 24 h at 35 °C
HSV = test: MTT-based antiviral assay, HSV in Vero cells; type: cell-based, herpes simplex virus; details: maximum concentration of 100 μM, data not shown
[6] = target: PR8-derived viral RNA polymerase (Influenza A virus, UniProt P03428+P03431+P03433); type: cell-based; details: 11, 33 and 100 μM, Vero cells, FLuc normalized against RLuc, day 1
CoxB = test: MTT-based antiviral assay, CoxB in HeLa cells; type: cell-based, Coxsackie B virus; details: maximum concentration of 100 μM, data not shown
B/Lee/40 = type: cell-based, influenza B virus
PR8 virus [7] = type: cell-based, influenza A virus; remark: listed apart in the source
FECV = test: MTT-based antiviral assay, FECV in CrFK cells; type: cell-based, feline coronavirus; details: maximum concentration of 100 μM, data not shown
HIV = test: MTT-based antiviral assay, HIV in MT-4 cells; type: cell-based, human immunodeficiency virus; details: maximum concentration of 100 μM, data not shown
[8] = test system: pore-forming glycoprotein perforin; details: previous study, ref Lena et al., 2008; cited from earlier work
PR8 NA = PR8 NA (Influenza A virus, UniProt P03468); test: biochemical
[9] = test system: wild-type NA derived from influenza H1N1 (A/California/04/2009); type: biochemical

SMILES	EC50 [2] [µM]	CC50 (in vitro) [µM]	EC50 (A/Hong Kong/8/68 (H3N2)) [µM]	vRNA levels in culture supernatants (PR8 virus [4])	viral protein level (NP, HA) in cells [5]	antiviral activity against HSV (HSV)	viral RNA polymerase function [6]	antiviral activity against CoxB (CoxB)	plaque titer (infectious viral titers) (PR8 virus [7])	antiviral activity against FECV (FECV)	antiviral activity against HIV (HIV)	further results
O=C(O[C@@H]1Cc2c(O)cc(O)cc2O[C@@H]1c1cc(O)c(O)c(O)c1)c1cc(O)c(O)c(O)c1 [EGCG, (−)-epigallocatechin-3-gallate, reference compound]	–	–	–	–	–	–	–	–	–	–	–	NP signal, distribution and intensity in cells (PR8 virus entry): reduced the overall NP signal intensity
CCC(CC)O[C@@H]1C=C(C(=O)O)C[C@H](N)[C@H]1NC(C)=O [Oseltamivir carboxylate, oseltamivir carboxylate, reference compound]	0.03 ± 0.01	> 100	< 0.01	–	–	–	–	–	–	–	–	HA titer (PR8 virus [1]): no detection
Cc1cc2c(c(=S)[nH]1)C(=O)O/C2=C\c1c[nH]cn1 [Compound 15o, (Z)-1-((1H-imidazol-4-yl)methylene)-6-methyl-4-thioxo-4,5-dihydrofuro[3,4-c]pyridin-3(1H)-one]	> 100	> 900	> 100	–	–	–	–	–	–	–	–	anti-influenza activity [3]: no anti-influenza activity
Cc1cc2c(c(=S)[nH]1)C(=O)O/C2=C\c1ncc[nH]1 [Compound 15p, (Z)-1-((1H-Imidazol-2-yl)methylene)-6-methyl-4-thioxo-4,5-dihydrofuro[3,4-c]pyridin-3(1H)-one]	> 100	> 900	> 100	–	–	–	–	–	–	–	–	anti-influenza activity [3]: no anti-influenza activity
Cc1cc2c(c(=S)[nH]1)C(=O)O/C2=C\c1cccs1 [Compound 15q, (Z)-6-Methyl-1-(thiophen-2-ylmethylene)-4-thioxo-4,5-dihydrofuro[3,4-c]pyridin-3(1H)-one]	7.5	> 900	6.8	significantly inhibited	Reduction of the influenza viral protein level	no antiviral activity was detected	not changed	no antiviral activity was detected	significantly inhibited	no antiviral activity was detected	no antiviral activity was detected	S.I. (selectivity index, CC50/EC50), A/Puerto Rico/8/34 [2]: 7.5 ± 3.2 (>120.0); S.I. (selectivity index, CC50/EC50), B/Lee/40 (B/Lee/40): 7.0 ± 3.8 (>128.6); NP signal, distribution and intensity in cells (PR8 virus entry): not affected; inhibitory effect on cell lysis induced by perforin [8]: active; S.I. (selectivity index, CC50/EC50), A/Hong Kong/8/68 (A/Hong Kong/8/68 (H3N2)): 6.8 ± 1.3 (>132.4); IC50 (PR8 NA): 1.5 ± 0.4 µM
NC(=O)c1nc(F)c[nH]c1=O [Compound T-705, 6-flouro-3-hydroxy-2-pyrazinecarboxamide, reference compound]	4.3 ± 2.4	> 100	6.5 ± 1.7	–	–	–	suppressed	–	–	–	–	HA titer (PR8 virus [1]): 8 HAU/50 μl
Cc1cc2c(c(=S)[nH]1)C(=O)O/C2=C\c1c[nH]c2ccc(F)cc12 [Compound 15a, (Z)-1-((5-Fluoro-1H-indol-3-yl)methylene)-6-methyl-4-thioxo-4,5-dihydrofuro[3,4-c]pyridin-3(1H)-one]	–	> 900	–	significantly inhibited	Reduction of the influenza viral protein level	no antiviral activity was detected	not changed	no antiviral activity was detected	significantly inhibited	no antiviral activity was detected	no antiviral activity was detected	function of wild-type NA [9]: suppressed; inhibition at 20 µM ([3]; Influenza A virus, H1N1|H3N2, read-out: virus growth inhibition): > 50%; IC50 (PR8 NA): 0.6 ± 0.1 µM
Cc1cc2c(c(=S)[nH]1)C(=O)O/C2=C\c1cc2ccccc2s1 [Compound 15g, (Z)-1-(Benzo[b]thiophen-2-ylmethylene)-6-methyl-4-thioxo-4,5-dihydrofuro[3,4-c]pyridin-3(1H)-one]	16.1	> 900	10.5	significantly inhibited	Reduction of the influenza viral protein level	no antiviral activity was detected	–	no antiviral activity was detected	significantly inhibited	no antiviral activity was detected	no antiviral activity was detected	S.I. (selectivity index, CC50/EC50), A/Puerto Rico/8/34 [2]: 16.1 ± 6.0 (>55.9); S.I. (selectivity index, CC50/EC50), B/Lee/40 (B/Lee/40): 18.4 ± 12.8 (>48.9); inhibitory effect on cell lysis induced by perforin [8]: active; S.I. (selectivity index, CC50/EC50), A/Hong Kong/8/68 (A/Hong Kong/8/68 (H3N2)): 10.5 ± 5.0 (>85.7)
